Tests used:
human P2X2/3 receptor = human P2X2/3 receptor (Homo sapiens (Human), UniProt P56373+Q9UBL9); assay: Intracellular calcium measurement (FLIPR, Fluo-4) of antagonist activity at human P2X2/3 receptors; assay type: cell-based; details: human P2X2/3, FLIPR calcium assay, agonist α,β-Me-ATP; read-out: hP2X2/3 IC50
Protocol: (§1) Intracellular Calcium Measurement to Assess Antagonist Activity at Human P2X3 and Human P2X2/3 Receptors
(§2) A fluorescent imaging plate reader (FLEX/FLIPR station; Molecular Devices) was used to monitor intracellular calcium levels using the calcium-chelating dye Fluo-4 (Molecular Probes). […] Cells expressing purinergic receptors P2X3 (human) or P2X2/3 (human) were plated at a density of 15,000 cells/well in collagen-coated 384-well plates approximately 20 hours before beginning the assay. […] The test compound was added in a volume of 5 μl and allowed to incubate for 30 min at 37° C. The final assay DMSO concentration is 1%. The agonist, α,β-Me-ATP, was added in a volume of 20 μl at a concentration representing the EC80 value. The fluorescence was measured for an interval of 90 sec at 2 sec intervals and analyzed based on the increase in peak relative fluorescence units (RFU) compared to the basal fluorescence. Peak fluorescence was used to determine the response to agonist obtained at each concentration of test compound by the following equation: % Response=100*(RFU(test compound)−RFU(control)/RFU(DMSO)−RFU(control))
(§3) The Examples were tested in triplicates per plate and mean values were plotted in Excel XLFit to determine IC50 values at the human P2X3 and human P2X2/3 receptors, percentage of maximal inhibition and the Hill coefficients.

human P2X3 receptor = human P2X3 receptor (Homo sapiens (Human), UniProt P56373); assay: Intracellular calcium measurement (FLIPR, Fluo-4) of antagonist activity at human P2X3 receptors; assay type: cell-based; details: human P2X3, FLIPR calcium assay, agonist α,β-Me-ATP; read-out: hP2X3 IC50
Protocol: as §1, §2, §3

Sequence of human P2X2/3 receptor (P56373 whole entry): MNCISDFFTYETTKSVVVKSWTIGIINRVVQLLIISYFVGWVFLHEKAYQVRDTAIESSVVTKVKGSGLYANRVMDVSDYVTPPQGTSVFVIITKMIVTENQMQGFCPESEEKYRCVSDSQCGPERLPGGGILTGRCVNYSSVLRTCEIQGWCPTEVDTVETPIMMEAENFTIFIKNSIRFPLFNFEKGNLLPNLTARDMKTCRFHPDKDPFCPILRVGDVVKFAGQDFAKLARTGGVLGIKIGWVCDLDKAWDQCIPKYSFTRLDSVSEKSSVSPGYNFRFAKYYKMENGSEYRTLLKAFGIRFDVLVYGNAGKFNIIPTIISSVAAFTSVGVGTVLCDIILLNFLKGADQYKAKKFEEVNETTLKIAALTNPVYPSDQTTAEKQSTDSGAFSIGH
Sequence of human P2X2/3 receptor (Q9UBL9 whole entry): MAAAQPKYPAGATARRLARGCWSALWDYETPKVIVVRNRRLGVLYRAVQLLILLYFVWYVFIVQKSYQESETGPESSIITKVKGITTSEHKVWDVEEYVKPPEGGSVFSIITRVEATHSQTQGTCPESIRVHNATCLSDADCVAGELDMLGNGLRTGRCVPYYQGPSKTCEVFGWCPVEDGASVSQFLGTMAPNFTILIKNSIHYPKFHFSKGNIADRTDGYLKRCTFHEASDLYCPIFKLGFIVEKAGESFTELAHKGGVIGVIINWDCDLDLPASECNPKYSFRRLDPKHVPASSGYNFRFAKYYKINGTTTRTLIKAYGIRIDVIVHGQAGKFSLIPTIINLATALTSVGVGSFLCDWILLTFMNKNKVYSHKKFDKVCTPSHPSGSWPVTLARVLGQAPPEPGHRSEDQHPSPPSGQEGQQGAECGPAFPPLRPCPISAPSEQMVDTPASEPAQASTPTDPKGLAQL
Sequence of human P2X3 receptor (P56373 whole entry): as the sequence (P56373 whole entry) above

## CC#CCOc1cc(C(=O)N[C@H](C)c2cnc(C(F)(F)F)nc2)cc(-c2ncc(C)s2)c1 [Example 40, 3-(But-2-yn-1-yloxy)-5-(5-methyl-1,3-thiazol-2-yl)-N-[(1R)-1-[2-(trifluoromethyl)pyrimidin-5-yl]ethyl]benzamide]
Human P2X2/3 receptor
  IC50: 383 nM
Human P2X3 receptor
  IC50: 16 nM

## CC#CCOc1cc(C(=O)N[C@H](C)c2nnc(C)s2)cc(-c2ncc(C)s2)c1 [Example 41, 3-(But-2-yn-1-yloxy)-N-[(1R)-1-(5-methyl-1,3,4-thiadiazol-2-yl)ethyl]-5-(5-methyl-1,3-thiazol-2-yl)benzamide]
Human P2X2/3 receptor
  IC50: 1590 nM
Human P2X3 receptor
  IC50: 130 nM

## Cc1ncc([C@@H](C)NC(=O)c2cc(OC3COC3)cc(-c3ncc(C)s3)c2)cn1 [Example 43, N-[(1R)-1-(2-Methylpyrimidin-5-yl)ethyl]-3-(5-methyl-1,3-thiazol-2-yl)-5-(oxetan-3-yloxy)benzamide]
Human P2X2/3 receptor
  IC50: 2690 nM
Human P2X3 receptor
  IC50: 50 nM

## Cc1cnc(-c2cc(OC3COC3)cc(C(=O)NC(C)c3ncc(Cl)cc3F)c2)s1 (centres unmarked) [Example 44, N-[1-(5-Chloro-3-fluoropyridin-2-yl)ethyl]-3-(5-methyl-1,3-thiazol-2-yl)-5-(oxetan-3-yloxy)benzamide]
Human P2X2/3 receptor
  IC50: 370 nM
Human P2X3 receptor
  IC50: 11 nM

## Cc1ccc(CNC(=O)c2cc(OC3COC3)cc(-c3ncc(C)s3)c2)nn1 [Example 45, N-[(6-Methylpyridazin-3-yl)methyl]-3-(5-methyl-1,3-thiazol-2-yl)-5-(oxetan-3-yloxy)benzamide]
Human P2X2/3 receptor
  IC50: 1510 nM
Human P2X3 receptor
  IC50: 212 nM

## Cc1cnc(-c2cc(OC3COC3)cc(C(=O)N[C@H](C)c3ccc(Cl)cn3)c2)s1 [Example 46, N-[(1R)-1-(5-Chloropyridin-2-yl)ethyl]-3-(5-methyl-1,3-thiazol-2-yl)-5-(oxetan-3-yloxy)benzamide]
Human P2X2/3 receptor
  IC50: 389 nM
Human P2X3 receptor
  IC50: 10 nM

## Cc1ccc([C@@H](C)NC(=O)c2cc(OC3COC3)cc(-c3ncc(C)s3)c2)nn1 [Example 47, N-[(1R)-1-(6-Methylpyridazin-3-yl)ethyl]-3-(5-methyl-1,3-thiazol-2-yl)-5-(oxetan-3-yloxy)benzamide]
Human P2X2/3 receptor
  IC50: 621 nM
Human P2X3 receptor
  IC50: 82 nM

## Cc1cnc(-c2cc(OC3COC3)cc(C(=O)NC(C)c3ncc(F)cc3Cl)c2)s1 (centres unmarked) [Example 49, N-[1-(3-Chloro-5-fluoropyridin-2-yl)ethyl]-3-(5-methyl-1,3-thiazol-2-yl)-5-(oxetan-3-yloxy)benzamide]
Human P2X2/3 receptor
  IC50: 1520 nM
Human P2X3 receptor
  IC50: 132 nM

## Cc1cnc(-c2cc(OC3COC3)cc(C(=O)N[C@H](C)c3nnc(C)s3)c2)s1 [Example 50, N-[(1R)-1-(5-Methyl-1,3,4-thiadiazol-2-yl)ethyl]-3-(5-methyl-1,3-thiazol-2-yl)-5-(oxetan-3-yloxy)benzamide]
Human P2X2/3 receptor
  IC50: 982 nM
Human P2X3 receptor
  IC50: 77 nM

## Cc1cnc(-c2cc(OC3COC3)cc(C(=O)NCc3ccc(C(F)(F)F)nn3)c2)s1 [Example 52, 3-(5-methyl-1,3-thiazol-2-yl)-5-(oxetan-3-yloxy)-N-{[6-(trifluoromethyl)pyridazin-3-yl]methyl}benzamide]
Human P2X2/3 receptor
  IC50: 564 nM
Human P2X3 receptor
  IC50: 194 nM

## CC[C@@H](NC(=O)c1cc(OC2COC2)cc(-c2ncc(C)s2)c1)c1cnc(C(F)(F)F)nc1 [Example 53, 3-(5-methyl-1,3-thiazol-2-yl)-5-(oxetan-3-yloxy)-N-{(1R)-1-[2-(trifluoromethyl)pyrimidin-5-yl]propyl}benzamide]
Human P2X2/3 receptor
  IC50: 2740 nM
Human P2X3 receptor
  IC50: 318 nM

## Cc1cnc(CNC(=O)c2cc(OC[C@@H]3CCCO3)cc(-c3ncc(C)s3)c2)cn1 [Example 56, N-[(5-Methylpyrazin-2-yl)methyl]-3-(5-methyl-1,3-thiazol-2-yl)-5-[(2S)-tetrahydrofuran-2-ylmethoxy]benzamide]
Human P2X2/3 receptor
  IC50: ≥ 10000 nM
Human P2X3 receptor
  IC50: 148 nM

## Cc1cnc([C@@H](C)NC(=O)c2cc(OC[C@@H]3CCCO3)cc(-c3ncc(C)s3)c2)cn1 [Example 57, N-[(1R)-1-(5-Methylpyrazin-2-yl)ethyl]-3-(5-methyl-1,3-thiazol-2-yl)-5-[(2S)-tetrahydrofuran-2-ylmethoxy]benzamide]
Human P2X2/3 receptor
  IC50: 2840 nM
Human P2X3 receptor
  IC50: 25 nM

## Cc1cnc(-c2cc(OC[C@@H]3CCCO3)cc(C(=O)N[C@H](C)c3cnc(C(F)(F)F)nc3)c2)s1 [Example 58, 3-(5-Methyl-1,3-thiazol-2-yl)-5-[(2S)-tetrahydrofuran-2-ylmethoxy]-N-{(1R)-1-[2-(trifluoromethyl)pyrimidin-5-yl]ethyl}benzamide]
Human P2X2/3 receptor
  IC50: 461 nM
Human P2X3 receptor
  IC50: 4 nM

## Cc1ccc([C@@H](C)NC(=O)c2cc(OC[C@@H]3CCCO3)cc(-c3ncc(C)s3)c2)nn1 [Example 59, N-[(1R)-1-(6-Methylpyridazin-3-yl)ethyl]-3-(5-methyl-1,3-thiazol-2-yl)-5-[(2S)-tetrahydrofuran-2-ylmethoxy]benzamide]
Human P2X2/3 receptor
  IC50: 507 nM
Human P2X3 receptor
  IC50: 13 nM

## Cc1cnc(-c2cc(OC[C@@H]3CCCO3)cc(C(=O)N[C@H](C)c3ccc(C(F)(F)F)nn3)c2)s1 [Example 60, 3-(5-Methyl-1,3-thiazol-2-yl)-5-[(2S)-tetrahydrofuran-2-ylmethoxy]-N-{(1R)-1-[6-(trifluoromethyl)pyridazin-3-yl]ethyl}benzamide]
Human P2X2/3 receptor
  IC50: 578 nM
Human P2X3 receptor
  IC50: 11 nM

## Cc1ccc([C@@H](C)NC(=O)c2cc(OC[C@H]3CCCO3)cc(-c3ncc(C)s3)c2)nn1 [Example 61, N-[(1R)-1-(6-methylpyridazin-3-yl)ethyl]-3-(5-methyl-1,3-thiazol-2-yl)-5-[(2R)-tetrahydrofuran-2-ylmethoxy]benzamide]
Human P2X2/3 receptor
  IC50: 428 nM
Human P2X3 receptor
  IC50: 14 nM

## Cc1ccc(CNC(=O)c2cc(OC[C@H]3CCCO3)cc(-c3ncc(C)s3)c2)nn1 [Example 62, N-[(6-Methylpyridazin-3-yl)methyl]-3-(5-methyl-1,3-thiazol-2-yl)-5-[(2R)-tetrahydrofuran-2-ylmethoxy]benzamide]
Human P2X2/3 receptor
  IC50: 1440 nM
Human P2X3 receptor
  IC50: 85 nM

## Cc1cnc(-c2cc(OC[C@H]3CCCO3)cc(C(=O)N[C@H](C)c3cnc(C(F)(F)F)nc3)c2)s1 [Example 63, 3-(5-Methyl-1,3-thiazol-2-yl)-5-[(2R)-tetrahydrofuran-2-ylmethoxy]-N-{(1R)-1-[2-(trifluoromethyl)pyrimidin-5-yl]ethyl}benzamide]
Human P2X2/3 receptor
  IC50: 118 nM
Human P2X3 receptor
  IC50: 4 nM

## Cc1cnc([C@@H](C)NC(=O)c2cc(OC[C@H]3CCCO3)cc(-c3ncc(C)s3)c2)cn1 [Example 64, N-[(1R)-1-(5-methylpyrazin-2-yl)ethyl]-3-(5-methyl-1,3-thiazol-2-yl)-5-[(2R)-tetrahydrofuran-2-ylmethoxy]benzamide]
Human P2X2/3 receptor
  IC50: 984 nM
Human P2X3 receptor
  IC50: 53 nM

## Cc1cnc(-c2cc(OC[C@H]3CCOC3)cc(C(=O)NC(C)c3ncc(Cl)cc3F)c2)s1 (stereo partly drawn) [Example 65, N-[1-(5-Chloro-3-fluoropyridin-2-yl)ethyl]-3-(5-methyL-1,3-thiazol-2-yl)-5-[(3S)-tetrahydrofuran-3-ylmethoxy]benzamide]
Human P2X2/3 receptor
  IC50: 54 nM
Human P2X3 receptor
  IC50: 3 nM

## Cc1ccc(CNC(=O)c2cc(OC[C@H]3CCOC3)cc(-c3ncc(C)s3)c2)nn1 [Example 66, N-[(6-Methylpyridazin-3-yl)methyl]-3-(5-methyl-1,3-thiazol-2-yl)-5-[(3S)-tetrahydrofuran-3-ylmethoxy]benzamide]
Human P2X2/3 receptor
  IC50: 6300 nM
Human P2X3 receptor
  IC50: 35 nM
